Laboratory results from PMC9740702, “Binding and Detoxification of Insecticides by Potentially Probiotic Lactic Acid Bacteria Isolated from Honeybee (Apis mellifera L.) Environment—An In Vitro Study” (Cells, 2022).

How the values were obtained:
[1] = test system: cat (Felis catus) fibroblast cells; conditions: cited from earlier work
P. pentosaceus 14/1 = assay: Effect of pesticides on the growth of LAB (microtitration assay); format: cell-based, Pediococcus pentosaceus; conditions: 48 h incubation, versus non-exposed cells
Procedure: (§1) The experiments were conducted in transparent 96-well polystyrene microplates. The final concentrations of tested pesticides were 20, 100, and 500 µg/mL. Each well was inoculated with an overnight culture of an individual LAB strain at the density of 1.8–2.4 × 10^9 CFU/mL (6.0–8.0 according to McFarland standard). Each strain was tested in 4 replicates. Negative controls were non-exposed bacterial cells in MRS or MRS-F broth. The test was performed at 30 or 37 °C for 48 h.

LAB strains [2] = test system: LAB strains; set-up: method as in PMID 28324568; conditions: cited from earlier work
L. plantarum ISO = test system: L. plantarum ISO; set-up: method as in PMID 28578396; conditions: 295 µM, MRS medium, log phase; cited from earlier work
[3] = test system: Enterococcus faecium E86, Lactococcus lactis subsp. lactis ATCC 11454, L. rhamnosus GG ATCC 53103, L. lactis Garvie ATCC 19256, Leuconostoc mesenteroides subsp.; set-up: method as in doi:10.1016/j.lwt.2019.02.037; conditions: 500 mg/L; cited from earlier work
LAB strains [4] = assay: Binding of pesticides to the cell wall of LAB (extent of binding); conditions: whole live LAB cells, initial 100 µg/mL, 24 h
Procedure: Overnight cultures of LAB in MRS/MRS-F broth were centrifuged (3864× g, 15 min), and biomass was washed with sterile ultrapure water and centrifuged again. This procedure was repeated until the MRS/MRS-F broth was completely washed. Next, the biomass of whole live LAB cells was suspended in sterile ultrapure water with an individual pesticide solution (at a final concentration of 100 µg/mL, v/v) and thoroughly mixed. The density of LAB cells was 1.8–2.4 × 10^9 CFU/mL (6.0–8.0 according to McFarland standard). The positive controls (standards) were individual pesticides without LAB strains. Negative controls were LAB strains suspended in sterile ultrapure water without pesticides. The samples were incubated anaerobically at 30 °C for 24 h with continuous orbital shaking (240 r.p.m.) (LAUDA Varioshake VS 8 OE Shaker, Dr. R. Wobser Gmbh & Co., Lauda-Königshofen, […]). Finally, the supernatants containing residual pesticide were collected by centrifugation (10,733× g, 20 min) and were filtered using sterile syringe filters (0.22 μm) and frozen in sterile vials until analysis at −20 °C.
Pesticides were analyzed according to Hafeez et al. (2015) using the HPLC-DAD technique with some modifications. For the qualitative–quantitative determination of pesticides, HPLC analysis was performed using a UHPLC+ Dionex UltiMate 3000 system (Thermo Fisher Scientific Inc., Waltham, MA, USA) equipped with a UV–Vis detector (Thermo Fisher Scientific Inc., Waltham, MA, USA) and NUCLEOSIL C18 column (4.6 × 250 mm, 5 µm particle size; Macherey-Nagel, Germany). Isocratic elution was carried out with 70/30 (v/v) acetonitrile/water as the mobile phase. The flow rate was set to 1.0 mL/min, and the column temperature was 25 °C. The injection volume was 20 µL. Detection and quantification were performed with two wavelengths: 219 nm for chlorpyrifos and coumaphos and 270 nm for imidacloprid. Quantification was performed using an external standard method. All measurements were made twice.

LAB = test system: LAB; set-up: method as in earlier work; conditions: concentrations above 2 ppm; cited from earlier work
P. acidilactici 8/1 = assay: Effect of pesticides on the growth of LAB (microtitration assay); format: cell-based, Pediococcus acidilactici; conditions: 100 µg/mL, 48 h incubation, versus non-exposed cells
Procedure: as §1

[5] = test system: prostate epithelial WPM-Y1 cell line; set-up: method as in PMID 33456462; conditions: 24 h, MTT assay; read-out: median inhibition value; cited from earlier work

CCOC(=O)CC(SP(=S)(OC)OC)C(=O)OCC (stereo not shown) [Malathion]
concentration at which maximum DNA damage was recorded [1]: 45000 µM

CCOP(=S)(OCC)Oc1nc(Cl)c(Cl)cc1Cl [chlorpyrifos]
bacterial growth (P. pentosaceus 14/1; 20 µg/mL): 99.94%
chlorpyrifos concentration at which some LAB strains were able to grow (LAB strains [2]): > 1400 µg/mL
effect on growth of L. plantarum ISO (L. plantarum ISO): significantly reduced the growth
effect on growth of LAB [3]: did not affect the growth

CCOP(=S)(OCC)Oc1ccc2c(C)c(Cl)c(=O)oc2c1 [coumaphos]
bacterial growth (P. pentosaceus 14/1; 500 µg/mL): 100.6%
pesticide binding by LAB (highest extent) (LAB strains [4]): up to 57%

ClC1=C(Cl)C2(Cl)C3C4CC(C5OC45)C3C1(Cl)C2(Cl)Cl (stereo not shown) [endrin]
effect on lactic acid production by LAB (LAB): completely inhibited

O=[N+]([O-])NC1=NCCN1Cc1ccc(Cl)nc1 [imidacloprid]
bacterial growth (P. acidilactici 8/1): 101.84%
pesticide binding by LAB (highest extent) (LAB strains [4]): ≤ 36%
pesticide binding by LAB (highest extent) (LAB strains [4]; listed as Imidacloprid): about 36%
IC50 [5]: 23 µM

Cl[C@H]1[C@H](Cl)[C@@H](Cl)[C@@H](Cl)[C@H](Cl)[C@H]1Cl [lindane]
effect on lactic acid production by LAB (LAB): completely inhibited
